Measured values as given in PMC3419607, “Effect of Alpinia zerumbet components on antioxidant and skin diseases-related enzymes” (BMC Complementary and Alternative Medicine, 2012).
Converted amounts (≈) assume the structure as drawn.

Legend:
[1] = DPPH radical scavenging activity assay; conditions: 30 min, 517 nm
Method: The free radical scavenging activity was evaluated as described previously. Five hundred microlilters of the different concentration of test samples were mixed with 200 μl of 0.5 mM DPPH methanol solution and 500 μl of 0.1 M sodium acetate buffer (pH 5.5). After shaking, the mixture was incubated in the dark at room temperature for 30 min, and then the absorbance was measured at 517 nm. BHT was used as a positive control, while water and methanol were used as controls for calculation.
(§1) The ability of the extracts to scavenge DPPH, ABTS^·+, PMS-NADH radicals were calculated by following formula:
(§2) Radical scavenging (%) = [(O.Dcontrol – O.Dsample)/ O.Dcontrol] x 100,
(§3) where O.D is the optical density in the presence or absence of the samples.

[2] = Total antioxidant activity (ABTS) assay; conditions: ABTS radical scavenging, 6 min, 734 nm
Method: The total antioxidant activity of test sample was measured with modified method as described previously. ABTS^·+ solution was generated by mixing 7 mM ABTS and 2.45 mM potassium persulfate (K2S2O8) in water, which was placed in the dark at room temperature for 16 h to give the complete oxidation of ABTS. Before using, the ABTS^·+ solution was diluted with water to get an absorbance of 0.700 ± 0.050 at 734 nm. Briefly, 1 ml of ABTS^·+ solution was added to 30 μl of test samples and mixed thoroughly. BHT was used as positive control and the sample solutions were used as controls. The reactive mixture was incubated at room temperature for 6 min and the absorbance was immediately recorded at 734 nm.
as §1, §2, §3

[3] = PMS-NADH system superoxide-radical scavenging assay; conditions: 560 nm
Method: The superoxide scavenging activity was assayed following the method of Lau et al. with minor modifications. The reaction mixture contained 0.5 ml of 105 μM NADH, 0.5 ml of 66 μM NBT dissolved in 0.1 M phosphate buffer (pH 7.4) and 0.1 ml sample in different concentrations. The reaction was initiated by adding 0.5 ml of 30 μM PMS into the reaction mixture. Methanol and water were used as a control and BHT as a positive control. After 10 min, the reaction mixture reached to stable color, measurement of absorbance was conducted at 560 nm.
as §1, §2, §3

[4] = biological target: Collagenase from Clostridium histolyticum (ChC); assay: Collagenase inhibition assay (FALGPA substrate); assay type: biochemical; conditions: plant parts: aqueous extract
Method: Collagenase inhibition assay was performed by the method described previously which based on the hydrolysis of N-[3-(2-furyl)acryloyl]-Leu-Gly-Pro-Ala (FALGPA) by collagenase to produce FA-Leu and Gly-Pro-Ala. The assay was performed in 50 mM Tricine buffer (400 mM NaCl and 10 mM CaCl2, pH 7.5). Collagenase from Clostridium histolyticum (ChC) was dissolved in the buffer for use at an initial concentration of 0.8 units/ ml. The synthetic substrate, FALGPA, was dissolved in the Tricine buffer to 2 mM. Sample extracts were incubated with the enzyme in the buffer for 15 min before adding substrate to start reaction. The final reaction mixture (150 μl total volume) contained Tricine buffer, 0.8 mM of FALGPA, 0.1 units of ChC and 25 μg of test extracts. Controls were performed with water and methanol, while oleanolic acid as a positive control. After adding substrate for 20 min, collagenase activity was measured at 340 nm.
The percentage inhibition for collagenase, elastase and hyaluronidase assays were calculated by:
Enzyme inhibition activity (%) = (1– B/A) x 100, where A is the enzyme activity without sample and B is the activity in presence of the sample.

[5] = biological target: T1, elastase from porcine pancreas (Sus scrofa, UniProt P00772); assay: Elastase inhibition assay (SANA substrate); assay type: biochemical; conditions: plant parts: aqueous extract
T1 construct: from tissue; host or cells: porcine pancreas
T1 sequence (P00772 27-266): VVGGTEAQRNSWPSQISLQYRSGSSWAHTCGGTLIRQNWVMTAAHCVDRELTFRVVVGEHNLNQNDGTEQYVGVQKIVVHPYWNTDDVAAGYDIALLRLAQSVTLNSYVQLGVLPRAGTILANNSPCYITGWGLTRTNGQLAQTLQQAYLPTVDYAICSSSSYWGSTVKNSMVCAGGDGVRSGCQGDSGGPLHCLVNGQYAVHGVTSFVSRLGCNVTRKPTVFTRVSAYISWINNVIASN
Description: The inhibitory activity determined the intensity of color released during cleavage of SANA by the action of elastase.

[6] = biological target: T2, hyaluronidase from bovine test (Bos taurus, UniProt Q2YDK3); assay: Hyaluronidase inhibition assay; assay type: biochemical; conditions: plant parts: aqueous extract
T2 construct: from tissue; host or cells: bovine testes (printed 'bovine test')
T2 sequence (Q2YDK3 36-553): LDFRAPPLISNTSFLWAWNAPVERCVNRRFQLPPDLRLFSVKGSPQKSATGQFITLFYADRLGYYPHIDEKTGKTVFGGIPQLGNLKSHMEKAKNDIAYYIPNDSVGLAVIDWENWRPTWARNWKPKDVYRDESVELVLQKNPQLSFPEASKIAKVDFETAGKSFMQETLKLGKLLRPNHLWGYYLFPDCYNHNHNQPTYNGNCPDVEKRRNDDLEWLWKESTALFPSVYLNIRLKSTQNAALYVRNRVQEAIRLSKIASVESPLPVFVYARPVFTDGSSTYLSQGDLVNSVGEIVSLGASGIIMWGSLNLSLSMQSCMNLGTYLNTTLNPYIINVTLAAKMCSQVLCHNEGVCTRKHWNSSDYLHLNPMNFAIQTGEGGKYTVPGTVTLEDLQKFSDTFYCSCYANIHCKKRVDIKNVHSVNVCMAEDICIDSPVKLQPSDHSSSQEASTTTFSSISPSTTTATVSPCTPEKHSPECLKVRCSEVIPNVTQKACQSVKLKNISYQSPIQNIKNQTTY

SMILES	Inhibitory effect (IC50) DPPH [1]	Inhibitory effect (IC50) ABTS [2]	Inhibitory effect (IC50) PMS-NADH [3]	IC50 collagenase inhibition [4] [µg/mL]	IC50 [5] [µM]	IC50 [6] [µM]
Cc1cc(C(C)(C)C)c(O)c(C(C)(C)C)c1 [BHT, tert-butyl hydroxytoluene, reference compound]	11.74 ± 0.15 a ^1 μg/mL	14.26 ± 0.16 a μg/mL	24.80 ± 0.98 a μg/mL			
COc1cc(/C=C/c2ccccc2)oc(=O)c1 [DK, 5,6-dehydrokawain]	122.14 ± 1.40 µg/mL	110.08 ± 3.34 µg/mL	127.78 ± 4.75 µg/mL	24.93 ± 0.97 (≈ 109 µM)	85	85.3
CC1(C)CC[C@]2(C(=O)O)CC[C@]3(C)C(=CC[C@@H]4[C@@]5(C)CC[C@H](O)C(C)(C)[C@@H]5CC[C@]43C)[C@@H]2C1 [oleanolic acid, reference compound]				17.95 ± 0.23 (≈ 39.3 µM)		
